The text below walks through data of patent US20100129436A1, “SUBTANCES FOR THE PROTECTION OF CELLS AND/OR TISSUES” (priority 2007, published 2010).

The first experiment has as its system endothelial cells, e.g. cells of the endothelium of the human umbilical cord vein. The experiment is described as follows: Protection of cultured endothelial cells against cold-induced damage (lactate dehydrogenase release). The class given is cell-based. Particulars: Homo sapiens, Endothelial cell; cells pre-incubated with test substance, medium replaced, then incubated e.g. 24 hours at 0° C; LDH in supernatant; read-out: EC50 (concentration at which 50% of the release of lactate dehydrogenase is inhibited). Here is the method: The active substances are synthesised as described below. The action of the substances on cold-induced damage to cells is quantified in a model system. For this purpose, endothelial cells, e.g. cells of the endothelium of the human umbilical cord vein, are cultured. The cells are incubated with various concentrations of the test substances for variable periods of time and then the medium is replaced by fresh medium without any test substance. Next, the cells are incubated e.g. for 24 hours at 0° C. At the end of the incubation period, the lactate dehydrogenase released is determined in the supernatant of the culture vessels by known methods, this concentration being a measure of cell damage. The effectiveness of the individual compounds is determined by the concentration at which 50% of the release of lactate dehydrogenase is inhibited (EC50).
Regarding `CNCC(O)c1ccc(O)c(O)c1` (stereo not shown) [Adrenalin, reference compound], the EC50 came out at 600 µM.
As for `CC(CCc1ccc(O)cc1)NCCc1ccc(O)c(O)c1` (stereo not shown) [Dobutamine, reference compound], the EC50 was 5 µM.
Turning to `NCCc1ccc(O)c(O)c1` [Dopamine, reference compound], the EC50 is 75 µM.
On to `O=C(CCc1ccccc1)NCCc1ccc(O)c(O)c1` [N-(3-Phenylpropanoyl) dopamine], for which the EC50 is 9 ± 1 µM.
Take `Cc1ccc(S(=O)(=O)NCCc2ccc(O)c(O)c2)cc1` [N-(4-Methylphenylsulfonyl) dopamine]: the EC50 stood at 12 ± 1 µM.
For `CCCCCCCCCC(=O)NCCc1ccc(O)c(O)c1` [N-Decanoyl dopamine], the EC50 was determined as 0.9 ± 0.2 µM.
Regarding `CCCCCCCCCCCC(=O)NCCc1ccc(O)c(O)c1` [N-Dodecanoyl dopamine], the EC50 came out at 1.2 ± 0.2 µM.
For `CCCCCCCC(=O)NCCc1ccc(O)c(O)c1` [N-Octanoyl dopamine], the EC50 is 2.1 ± 0.2 µM.
For `CCCCCCCCCCCCCC(=O)NCCc1ccc(O)c(O)c1` [N-Tetradecanoyl dopamine], the EC50 amounted to 1.3 ± 0.2 µM.
The same measure, in the same setting: to `NC[C@H](O)c1ccc(O)c(O)c1` [Noradrenalin, reference compound] belongs 700 µM.

Staying with this experiment, now noted: cells pre-incubated with test substance, medium replaced, then incubated e.g. 24 hours at 0° C; LDH in supernatant; read-out: EC50 (concentration at which 50% of the release of lactate dehydrogenase is inhibited).
Consider `CCCCCCCCNC(=O)c1cccc(O)c1O` [2,3-Dihydroxybenzoyl amidooctane], for which the EC50 is 1.2 ± 0.1 µM.
`CCCCCCCCNC(=O)c1cc(O)ccc1O` [2,5-Dihydroxybenzoyl amidooctane]: the EC50 amounted to 6 ± 1 µM.
Consider `CCCCCCCCNC(=O)c1ccc(O)c(O)c1` [3,4-Dihydroxybenzoyl amidooctane], for which the EC50 came out at 2.4 ± 0.2 µM.
